The test addresses recombinant human HPK1 (Homo sapiens (Human), UniProt Q92918). As to the kind of experiment: HPK1 kinase assay (ADP-Glo). The format is biochemical. The conditions noted are these: 25 μM ATP, MBP substrate. In short, it runs like this: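 Activity was read as ADP formed, detected by ADP-Glo luminescence after the reaction of 5 ng recombinant human HPK1 with MBP and ATP (stocks 0.5 μg/μl and 25 μM) for 40 min at 30 °C. Buffer was Tris pH 7.5 with MgCl2, BSA and DTT, with compound in 0.5% DMSO. IC50 came from inhibition curves.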
In general terms: In ADP-Glo the light output rises with the ADP produced.
Sequence of recombinant human HPK1 (Q92918 whole entry): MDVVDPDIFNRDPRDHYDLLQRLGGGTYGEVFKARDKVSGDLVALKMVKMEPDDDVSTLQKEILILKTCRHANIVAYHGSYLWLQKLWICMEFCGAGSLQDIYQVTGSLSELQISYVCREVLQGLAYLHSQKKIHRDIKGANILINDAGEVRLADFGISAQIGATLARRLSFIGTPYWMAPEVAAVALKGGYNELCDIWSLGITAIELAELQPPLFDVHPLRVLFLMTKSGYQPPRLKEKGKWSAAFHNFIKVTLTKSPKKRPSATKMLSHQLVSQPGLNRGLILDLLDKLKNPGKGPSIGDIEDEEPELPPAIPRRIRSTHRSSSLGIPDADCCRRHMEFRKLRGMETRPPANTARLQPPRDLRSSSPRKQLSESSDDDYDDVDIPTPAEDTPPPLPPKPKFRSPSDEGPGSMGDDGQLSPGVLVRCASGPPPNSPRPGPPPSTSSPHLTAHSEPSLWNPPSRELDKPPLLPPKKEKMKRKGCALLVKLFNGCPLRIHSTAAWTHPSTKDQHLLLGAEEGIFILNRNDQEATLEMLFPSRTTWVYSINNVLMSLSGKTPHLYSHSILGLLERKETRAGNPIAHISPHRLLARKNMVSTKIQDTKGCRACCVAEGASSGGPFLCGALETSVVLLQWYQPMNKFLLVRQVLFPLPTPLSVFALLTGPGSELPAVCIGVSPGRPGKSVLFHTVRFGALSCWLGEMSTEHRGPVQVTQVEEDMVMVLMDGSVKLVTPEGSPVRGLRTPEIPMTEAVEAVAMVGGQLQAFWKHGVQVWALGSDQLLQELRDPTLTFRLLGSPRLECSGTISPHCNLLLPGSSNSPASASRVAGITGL
In the case of `Cc1c(F)c(S(C)(=O)=O)c2[nH]ncc2c1-c1ccn2nc(NC(=O)[C@@H]3C[C@@H]3F)cc2c1` [Example 489, (1S,2S)-2-fluoro-N-(5-(6-fluoro-5-methyl-7-(methylsulfonyl)-1H-indazol-4-yl)pyrazolo[1,5-a]pyridin-2-yl)cyclopropane-1-carboxamide], the IC50 (commonly the midpoint of a concentration-inhibition curve) was below 100 nM.
Next, `COc1c(F)c(C)c(-c2ccn3nc(NC(=O)[C@@H]4C[C@@H]4F)cc3c2)c2cn[nH]c12` [Example 491, (1S,2S)-2-fluoro-N-(5-(6-fluoro-7-methoxy-5-methyl-1H-indazol-4-yl)pyrazolo[1,5-a]pyridin-2-yl)cyclopropane-1-carboxamide]: below 100 nM; `Cc1ccc2[nH]ncc2c1-c1ccc2nc(NC(=O)C3CCCC3)sc2c1` [Example 10, N-(6-(5-methyl-1H-indazol-4-yl)benzo[d]thiazol-2-yl)cyclopentanecarboxamide]: above 1000 nM.
For `CC(=O)Nc1c(F)c(C)c(-c2ccc3nc(NC(=O)[C@@H]4C[C@@H]4F)cn3c2)c2cn[nH]c12` [Example 308, (1S,2S)-N-(6-(7-acetamido-6-fluoro-5-methyl-1H-indazol-4-yl)imidazo[1,2-a]pyridin-2-yl)-2-fluorocyclopropane-1-carboxamide] the value was 101 to 500 nM.
Next, `Nc1c(F)cc2[nH]ncc2c1-c1ccc2nc(NC(=O)C3CC3)cn2c1` [Example 227, N-(6-(5-amino-6-fluoro-1H-indazol-4-yl)imidazo[1,2-a]pyridin-2-yl)cyclopropanecarboxamide]: above 1000 nM; `CSc1c(F)c(C)c(-c2ccc3nc(NC(=O)[C@@H]4C[C@@H]4F)cn3c2)c2cn[nH]c12` [Example 269, (1S,2S)-2-fluoro-N-(6-(6-fluoro-5-methyl-7-(methylthio)-1H-indazol-4-yl)imidazo[1,2-a]pyridin-2-yl)cyclopropane-1-carboxamide]: below 100 nM.
`CC(Nc1c(F)c(Cl)c(-c2ccn3nc(NC(=O)[C@@H]4C[C@@H]4F)cc3c2)c2cn[nH]c12)C(F)F` (stereo partly drawn) [Example 657, (1S,2S)-N-(5-(5-chloro-7-((1,1-difluoropropan-2-yl)amino)-6-fluoro-1H-indazol-4-yl)pyrazolo[1,5-a]pyridin-2-yl)-2-fluorocyclopropane-1-carboxamide]: the IC50 was below 100 nM.
For `O=C(Nc1cn2cc(-c3c(Cl)c(F)c(Cn4cncn4)c4[nH]ncc34)ccc2n1)[C@@H]1C[C@@H]1F` [Example 385, (1S,2S)-N-(6-(7-((1H-1,2,4-triazol-1-yl)methyl)-5-chloro-6-fluoro-1H-indazol-4-yl)imidazo[1,2-a]pyridin-2-yl)-2-fluorocyclopropane-1-carboxamide] the value was below 100 nM.
For `CCN(CC)c1c(F)c(Cl)c(-c2ccc3nc(NC(=O)[C@@H]4C[C@@H]4F)cn3c2)c2cn[nH]c12` [Example 281, (1S,2S)-N-(6-(5-chloro-7-(diethylamino)-6-fluoro-1H-indazol-4-yl)imidazo[1,2-a]pyridin-2-yl)-2-fluorocyclopropane-1-carboxamide] the value was below 100 nM; for `Cc1c(F)c(SCCO)c2[nH]ncc2c1-c1ccc2nc(NC(=O)[C@@H]3C[C@@H]3F)cn2c1` [Example 292, (1S,2S)-2-fluoro-N-(6-(6-fluoro-7-((2-hydroxyethyl)thio)-5-methyl-1H-indazol-4-yl)imidazo[1,2-a]pyridin-2-yl)cyclopropane-1-carboxamide], below 100 nM.
For `O=C(Nc1nc2ccc(-c3c(C4CC4)c(F)cc4[nH]ncc34)nc2s1)[C@@H]1C[C@@H]1F` [Example 158, (1S,2S)-N-(5-(5-cyclopropyl-6-fluoro-1H-indazol-4-yl)thiazolo[5,4-b]pyridin-2-yl)-2-fluorocyclopropane-1-carboxamide] the value was 101 to 500 nM.
For `O=C(Nc1cc2cc(-c3c(Cl)c(F)c(N4CC[S+]([O-])CC4)c4[nH]ncc34)ccn2n1)[C@@H]1C[C@@H]1F` [Example 635, (1S,2S)-N-(5-(5-chloro-6-fluoro-7-(1-oxidothiomorpholino)-1H-indazol-4-yl)pyrazolo[1,5-a]pyridin-2-yl)-2-fluorocyclopropane-1-carboxamide], the IC50 is below 100 nM.
Next, `CNC(=O)OCCSc1c(F)c(C)c(-c2ccc3nc(NC(=O)[C@@H]4C[C@@H]4F)cn3c2)c2cn[nH]c12` [Example 312, 2-((6-fluoro-4-(2-((1S,2S)-2-fluorocyclopropane-1-carboxamido)imidazo[1,2-a]pyridin-6-yl)-5-methyl-1H-indazol-7-yl)thio)ethyl methylcarbamate]: below 100 nM; `COc1c(F)c(Cl)c(-c2ccc3nc(NC(=O)[C@@H]4C[C@@H]4F)cn3c2)c2cn[nH]c12` [Example 272, (1S,2S)-N-(6-(5-chloro-6-fluoro-7-methoxy-1H-indazol-4-yl)imidazo[1,2-a]pyridin-2-yl)-2-fluorocyclopropane-1-carboxamide]: below 100 nM; `COc1c(F)c(C)c(-c2ccc3nc(NC(=O)[C@@H]4C[C@@H]4F)cn3c2)c2cn[nH]c12` [Example 271, (1S,2S)-2-fluoro-N-(6-(6-fluoro-7-methoxy-5-methyl-1H-indazol-4-yl)imidazo[1,2-a]pyridin-2-yl)cyclopropane-1-carboxamide]: below 100 nM.
For `O=C(Nc1nc2ccc(-c3c(-c4ccsc4)ccc4[nH]ncc34)cc2s1)C1CC1` [Example 18, N-(6-(5-(thiophen-3-yl)-1H-indazol-4-yl)benzo[d]thiazol-2-yl)cyclopropanecarboxamide] the value was above 1000 nM.
`CN(Nc1c(F)c(Cl)c(-c2ccc3nc(NC(=O)[C@@H]4C[C@@H]4F)cn3c2)c2cn[nH]c12)C(=O)OC(C)(C)C` [Example 309, tert-butyl 2-(5-chloro-6-fluoro-4-(2-((1S,2S)-2-fluorocyclopropane-1-carboxamido)imidazo[1,2-a]pyridin-6-yl)-1H-indazol-7-yl)-1-methylhydrazine-1-carboxylate]: the IC50 is below 100 nM.
For `CNC(=O)OCCN(C)c1c(F)c(C)c(-c2ccn3nc(NC(=O)[C@@H]4C[C@@H]4F)cc3c2)c2cn[nH]c12` [Example 580, 2-((6-fluoro-4-(2-((1S,2S)-2-fluorocyclopropane-1-carboxamido)pyrazolo[1,5-a]pyridin-5-yl)-5-methyl-1H-indazol-7-yl)(methyl)amino)ethyl methylcarbamate] the value was below 100 nM; for `Cc1c(F)cc2[nH]ncc2c1-c1ccc2nc(NC(=O)[C@@H]3C[C@@H]3F)sc2n1` [Example 147, (1S,2S)-2-fluoro-N-(5-(6-fluoro-5-methyl-1H-indazol-4-yl)thiazolo[5,4-b]pyridin-2-yl)cyclopropane-1-carboxamide], below 100 nM; for `CSc1c(F)cc(-c2ccc3nc(NC(=O)[C@@H]4C[C@@H]4F)cn3c2)c2cn[nH]c12` [Example 342, (1S,2S)-2-fluoro-N-(6-(6-fluoro-7-(methylthio)-1H-indazol-4-yl)imidazo[1,2-a]pyridin-2-yl)cyclopropane-1-carboxamide], below 100 nM.
Take `CCC(=O)NC(C)c1c(F)c(Cl)c(-c2ccn3nc(NC(=O)[C@@H]4C[C@@H]4F)cc3c2)c2cn[nH]c12` (stereo partly drawn) [Example 660, (1S,2S)-N-(5-(5-chloro-6-fluoro-7-(1-propionamidoethyl)-1H-indazol-4-yl)pyrazolo[1,5-a]pyridin-2-yl)-2-fluorocyclopropane-1-carboxamide]: the 50% inhibitory concentration (IC50) was below 100 nM.
For `O=C(Nc1cn2cc(-c3c(CO)c(F)cc4[nH]ncc34)ccc2n1)C1CC1` [Example 251, N-(6-(6-fluoro-5-(hydroxymethyl)-1H-indazol-4-yl)imidazo[1,2-a]pyridin-2-yl)cyclopropanecarboxamide] the value was above 1000 nM.
Next, `CN(Cc1cccnc1)c1c(F)c(Cl)c(-c2ccc3nc(NC(=O)[C@@H]4C[C@@H]4F)cn3c2)c2cn[nH]c12` [Example 349, (1S,2S)-N-(6-(5-chloro-6-fluoro-7-(methyl(pyridin-3-ylmethyl)amino)-1H-indazol-4-yl)imidazo[1,2-a]pyridin-2-yl)-2-fluorocyclopropane-1-carboxamide]: below 100 nM; `CP(C)(=O)c1c(F)c(Cl)c(-c2ccc3nc(NC(=O)[C@@H]4C[C@@H]4F)cn3c2)c2cn[nH]c12` [Example 259, (1S,2S)-N-(6-(5-chloro-7-(dimethylphosphoryl)-6-fluoro-1H-indazol-4-yl)imidazo[1,2-a]pyridin-2-yl)-2-fluorocyclopropane-1-carboxamide]: above 1000 nM.
For `Cc1ccc2[nH]ncc2c1-c1ccc2nc(NC(=O)[C@@H]3C[C@@H]3F)sc2c1` [Example 2, (1S,2S)-2-fluoro-N-(6-(5-methyl-1H-indazol-4-yl)benzo[d]thiazol-2-yl)cyclopropane-1-carboxamide] the value was 101 to 500 nM; for `O=C(Nc1cn2cc(-c3c(Cl)c(F)c(OC4CC4)c4[nH]ncc34)ccc2n1)[C@@H]1C[C@@H]1F` [Example 401, (1S,2S)-N-(6-(5-chloro-7-cyclopropoxy-6-fluoro-1H-indazol-4-yl)imidazo[1,2-a]pyridin-2-yl)-2-fluorocyclopropane-1-carboxamide], below 100 nM; for `CCOc1c(F)c(F)c2[nH]ncc2c1-c1ccn2nc(NC(=O)[C@@H]3C[C@@H]3F)cc2c1` [Example 611, (1S,2S)-N-(5-(5-ethoxy-6,7-difluoro-1H-indazol-4-yl)pyrazolo[1,5-a]pyridin-2-yl)-2-fluorocyclopropane-1-carboxamide], below 100 nM.
As to `CCOc1cc(C)c(-c2ccc3nc(NC(=O)[C@@H]4C[C@@H]4F)sc3c2)c2cn[nH]c12` [Example 101, (1S,2S)-N-(6-(7-ethoxy-5-methyl-1H-indazol-4-yl)benzo[d]thiazol-2-yl)-2-fluorocyclopropane-1-carboxamide], the IC50 is below 100 nM.
For `Cc1c(F)c(OCCNC(=O)C(F)(F)F)c2[nH]ncc2c1-c1ccn2nc(NC(=O)[C@@H]3C[C@@H]3F)cc2c1` [Example 547, (1S,2S)-2-fluoro-N-(5-(6-fluoro-5-methyl-7-(2-(2,2,2-trifluoroacetamido)ethoxy)-1H-indazol-4-yl)pyrazolo[1,5-a]pyridin-2-yl)cyclopropane-1-carboxamide] the value was below 100 nM.
